Patent US20260232681A1, “CRYSTALLINE FORMS OF N-[4-[4-(4-MORPHOLINYL)-7H-PYRROLO[2,3-D]PYRIMIDIN-6- YL]PHENYL]-4-[[3(R)-[(L-OXO-2-PROPEN-L-YL)AMINO]-L-PIPERIDINYL]METHYL]-2-PYRIDINECARBOXAMIDE AS A COVALENT INHIBITOR OF MENIN-MLL INTERACTION” (BIOMEA FUSION, INC., priority 2023, published 2026)

What was measured:
Assay type in all cases: cell-based
[1] = tested on: DLBCL cell lines (DHL, THL, DEL, GCB); assay: DLBCL cell line proliferation (Cell Titer Glo, four days)
Protocol: (§1) Compound A was tested against a THL cell line (VAL), and a DEL cell line (U2932). An expanded panel of DHL cell lines were tested for sensitivity to Compound A. Ex vivo patient samples of THL and MYC-amplified DLBCL were tested with Compound A. Sensitivity of THL and MYC-driven DLBCL in both in vitro and ex vivo models were compared with clinical reversible menin inhibitors. Compound A was tested against a panel of MM cell lines and ex vivo MM patient samples of p53del, 13qdel, and relapsed/refractory cases.
(§2) DLBCL cell line TOLEDO was cultured in the presence of Compound A or clinical reversible menin inhibitors for six and fourteen hours. Menin protein expression was reduced up to 60% at 1 μM by Compound A after fourteen hours compared to clinical reversible inhibitors at <20% at similar concentrations. Menin protein expression was measured by the Wes system and analyzed using the Compass software (automated western blotting, Protein Simple). Signal was normalized to GAPDH and referenced to DMSO control (FIG. 171E). DLBCL and MM cell lines were cultured with Compound A, bortezomib (PS-341), or DMSO for four days and cell proliferation was measured by Cell Titer Glo. Ex vivo studies of DLBCL and MM models were conducted by measurement of cell proliferation (Cell Titer Glo) after six days of treatment with Compound A, PS-341, or DMSO control.

[2] = tested on: MM cell lines; assay: MM cell line proliferation (Cell Titer Glo, four days)
Protocol: as §1, §2

[3] = tested on: human pancreatic islet beta cells; assay: Beta cell proliferation in human islet microtissues (Examples 107, 110)
Protocol: Human islet microtissues were aggregated for 5 days and then released into ultra-low attachment plates. Half of the plates were maintained in standard culture medium (5.5 mM glucose), and half were cultured in high-glucose culture medium (GTX, 8 mM glucose) starting at Day 6, for the duration of the whole experiment. Starting on Day 9 (after 3 days of GTX pre-treatment for the relevant plates), dosing with compounds was initiated, using a Tecan D300e Digital Dispenser. DMSO was normalized by volume across all wells. Media were exchanged and compounds were redosed every 2-3 days throughout the experiment. Compound dosing was randomized; to avoid compound cross-contamination between wells, all medium exchanges were performed using 96-well deep well plates with pipette tip exchange.
FIG. 38 provides human pancreatic islet beta cell proliferation on Day 14 and Day 21. In FIG. 38, A is ATP content; B is proliferating beta cell fraction; and C is beta cell fraction. Upper graphs are standard media, and lower graphs are high glucose media. Data represents mean+−SEM of 1 donor with n=4-10 technical replicates. One-way ANOVA with Dunnet's posthoc test to DMSO control. * p<0.05; ** p<0.01; and *** p<0.001.
The ability of menin-MLL inhibitors to induce beta-cell (β-cell) proliferation is tested on human islet microtissue preparations (InSphero). Briefly, human islet microtissues are produced by enzymatic dissociation of the primary islet cells followed by controlled scaffold-free hanging-drop-based self-reaggregation of the islet cells (Misun et al., 2020, Adv. Biosyst. 2020, 4, 1900291). The process helps eliminate contaminating exocrine cells, while enabling homogenous and native-like distribution of endocrine cells within each islet microtissue. […]
Effects of the compound on beta cell function and proliferation were monitored following culturing of the islets in the presence or absence of compound for 1, 2 or 3 weeks. Proliferation of beta cells and is monitored via immunofluorescence staining for appropriate markers. […]

## C=CC(=O)N[C@@H]1CCCN(Cc2ccnc(C(=O)Nc3ccc(-c4cc5c(N6CCOCC6)ncnc5[nH]4)cc3)c2)C1 [Compound A, N-[4-[4-(4-morpholinyl)-7H-pyrrolo[2,3-d]pyrimidin-6-yl]phenyl]-4-[[3(R)-[(1-oxo-2-propen-1-yl)amino]-1-piperidinyl]methyl]-2-pyridinecarboxamide]
[1]; DHL, THL, and DEL DLBCL cell lines, four days
  cell lethality: > 90%
[1]; VAL, U2932
  growth inhibition of THL and DEL cell line models: complete growth inhibition
[2]
  cell lethality: > 99%
[3]; glucose stress condition (8 mM glucose)
  beta-cell proliferation: dose dependent increase
[3]; human islet microtissues, Day 14 and Day 21, compared to control
  proliferating beta cell fraction: induced human pancreatic islet beta cells substantially
[3]; standard glucose conditions (5.5 mM glucose)
  beta-cell proliferation: not under standard glucose conditions
